This passage reports inhibition and activation results from patent US8772307B2, “Substituted spiro compounds and their use for producing pain-relief medicaments” (Gruenenthal GmbH, priority 2005, dated 2014).

Usually inhibition stands for the drop in the measured response relative to a control, in per cent.

The target in experiment [1] is T1, rat-species vanilloid receptor 1 (VR1/TRPV1) (Rattus norvegicus, UniProt O35433).
T1 construct: endogenous in cells; host or cells: primary cells dissociated from rat dorsal root ganglia (DRG)
T1 sequence (O35433 whole entry): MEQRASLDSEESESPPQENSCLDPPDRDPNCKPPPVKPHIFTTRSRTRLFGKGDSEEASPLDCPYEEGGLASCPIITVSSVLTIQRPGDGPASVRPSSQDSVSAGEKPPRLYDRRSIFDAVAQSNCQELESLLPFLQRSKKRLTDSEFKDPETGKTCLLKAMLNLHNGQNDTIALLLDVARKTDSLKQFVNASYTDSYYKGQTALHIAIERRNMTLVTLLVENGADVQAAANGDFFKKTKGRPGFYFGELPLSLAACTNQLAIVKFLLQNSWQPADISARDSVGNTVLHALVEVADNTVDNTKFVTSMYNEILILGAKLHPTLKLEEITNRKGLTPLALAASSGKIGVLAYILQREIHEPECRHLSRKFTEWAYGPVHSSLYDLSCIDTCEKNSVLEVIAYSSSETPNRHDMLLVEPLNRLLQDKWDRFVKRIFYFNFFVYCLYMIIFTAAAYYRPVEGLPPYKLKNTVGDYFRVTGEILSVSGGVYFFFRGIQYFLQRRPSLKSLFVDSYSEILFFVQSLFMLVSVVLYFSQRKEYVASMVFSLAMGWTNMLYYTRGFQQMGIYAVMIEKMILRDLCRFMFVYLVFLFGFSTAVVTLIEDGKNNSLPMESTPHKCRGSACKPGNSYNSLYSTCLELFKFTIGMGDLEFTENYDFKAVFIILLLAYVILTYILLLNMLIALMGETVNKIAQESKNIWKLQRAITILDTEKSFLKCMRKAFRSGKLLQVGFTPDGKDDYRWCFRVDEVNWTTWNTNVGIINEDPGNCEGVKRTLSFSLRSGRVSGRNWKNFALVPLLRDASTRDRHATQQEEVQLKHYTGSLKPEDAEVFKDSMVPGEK
The experiment in a line: Functional testing on vanilloid receptor 1 (VR1/TRPV1): FLIPR Ca2+ inflow assay in rat dorsal root ganglia cells (% activation / % inhibition vs capsaicin). It counts as cell-based. The conditions noted are these: for inhibition at 10 µM: inhibition compared to 10 μM CP (capsaicin); for activation at 10 µM: stimulation compared to 10 μM CP (capsaicin). Here is the method: Preference may also be given to substituted spiro compounds according to the invention of general formula I which in a FLIPR assay in a concentration of 10 μM display inhibition of the Ca^2+ ion inflow in dorsal root ganglia of rats of at least 30%, preferably of at least 40%, particularly preferably of at least 50%, most particularly preferably of at least 70%, even more preferably of at least 90%, compared to the maximum achievable inhibition of the Ca^2+ ion inflow with capsaicin in a concentration of 10 μM.
In the FLIPR assay, the Ca^2+ inflow is quantified using a Ca^2+-sensitive dye (type Fluo-4, Molecular Probes Europe BV, Leiden, Netherlands) in a fluorescent imaging plate reader (FLIPR, Molecular Devices, Sunnyvale, USA), as described hereinafter.
I. Functional Testing Carried Out on the Vanilloid Receptor 1 (VR1/TRPV1 Receptor)
The agonistic or antagonistic effect of the substances to be tested can be determined on the rat-species vanilloid receptor 1 (VR1/TRPV1) using the following assay. According to this assay, the Ca^2+ inflow is quantified through the receptor channel using a Ca^2+-sensitive dye (type Fluo-4, Molecular Probes Europe BV, Leiden, Netherlands) in a fluorescent imaging plate reader (FLIPR, Molecular Devices, Sunnyvale, USA).
Complete medium: 50 mL HAMS F12 nutrient mixture (Gibco Invitrogen GmbH, Karlsruhe, Germany) with
10% by volume of FCS (foetal calf serum, Gibco Invitrogen GmbH, Karlsruhe, Germany, […]);
2 mM L-glutamine (Sigma, Munich, Germany);
1% by weight of AA solution (antibiotic/antimyotic solution, PAA, Pasching, Austria)
and 25 ng/ml NGF medium (2.5 S, Gibco Invitrogen GmbH, Karlsruhe, Germany)
Cell culture plate: Poly-D-lysine-coated, black 96 well plates having a clear base (96 well black/clear plate, BD Biosciences, Heidelberg, Germany) were additionally coated with laminin (Gibco Invitrogen GmbH, Karlsruhe, Germany), the laminin being diluted with PBS (Ca—Mg-free PBS, Gibco Invitrogen GmbH, Karlsruhe, Germany) to a concentration of 100 μg/mL. Aliquots having a laminin concentration of 100 μg/mL were removed and stored at −20° C. The aliquots were diluted with PBS in a ratio of 1:10 to 10 μg/mL laminin and in each case 50 μL of the solution were pipetted into a recess in the cell culture plate. The cell culture plates were incubated for at least two hours at 37° C., the excess solution was removed by suction-filtration and the recesses were each washed twice with PBS. The coated cell culture plates were stored with excess PBS which was not removed until just before the feeding of the cells.
Preparation of the Cells:
The vertebral column was removed from decapitated rats and placed immediately into cold HBSS buffer (Hank's buffered saline solution, Gibco Invitrogen GmbH, Karlsruhe, Germany), i.e. buffer located in an ice bath, mixed with 1% by volume (percent by volume) of an AA solution (antibiotic/antimyotic solution, PAA, Pasching, Austria). The vertebral column was cut longitudinally and removed together with fasciae from the vertebral canal. Subsequently, the dorsal root ganglia (DRG) were removed and again stored in cold HBSS buffer mixed with 1% by volume of an AA solution. The DRG, from which all blood remnants and spinal nerves had been removed, were transferred in each case to 500 μL of cold type 2 collagenase (PAA, Pasching, Austria) and incubated for 35 minutes at 37° C. After the addition of 2.5% by volume of trypsin (PAA, Pasching, Austria), incubation was continued for 10 minutes at 37° C. After complete incubation, the enzyme solution was carefully pipetted off and 500 μL of complete medium were added to each of the remaining DRG. The DRG were in each case suspended several times, drawn through cannulae No. 1, No. 12 and No. 16 using a syringe and transferred to a 50 mL Falcon tube which was filled up to 15 mL with complete medium. […]

For experiment [2], the target named is T2, vanilloid receptor (VR1) (Homo sapiens, UniProt Q8NER1).
T2 construct: expressed in transfected cells; host or cells: CHO K1 cells (ECACC), stably transfected
T2 sequence (Q8NER1 whole entry): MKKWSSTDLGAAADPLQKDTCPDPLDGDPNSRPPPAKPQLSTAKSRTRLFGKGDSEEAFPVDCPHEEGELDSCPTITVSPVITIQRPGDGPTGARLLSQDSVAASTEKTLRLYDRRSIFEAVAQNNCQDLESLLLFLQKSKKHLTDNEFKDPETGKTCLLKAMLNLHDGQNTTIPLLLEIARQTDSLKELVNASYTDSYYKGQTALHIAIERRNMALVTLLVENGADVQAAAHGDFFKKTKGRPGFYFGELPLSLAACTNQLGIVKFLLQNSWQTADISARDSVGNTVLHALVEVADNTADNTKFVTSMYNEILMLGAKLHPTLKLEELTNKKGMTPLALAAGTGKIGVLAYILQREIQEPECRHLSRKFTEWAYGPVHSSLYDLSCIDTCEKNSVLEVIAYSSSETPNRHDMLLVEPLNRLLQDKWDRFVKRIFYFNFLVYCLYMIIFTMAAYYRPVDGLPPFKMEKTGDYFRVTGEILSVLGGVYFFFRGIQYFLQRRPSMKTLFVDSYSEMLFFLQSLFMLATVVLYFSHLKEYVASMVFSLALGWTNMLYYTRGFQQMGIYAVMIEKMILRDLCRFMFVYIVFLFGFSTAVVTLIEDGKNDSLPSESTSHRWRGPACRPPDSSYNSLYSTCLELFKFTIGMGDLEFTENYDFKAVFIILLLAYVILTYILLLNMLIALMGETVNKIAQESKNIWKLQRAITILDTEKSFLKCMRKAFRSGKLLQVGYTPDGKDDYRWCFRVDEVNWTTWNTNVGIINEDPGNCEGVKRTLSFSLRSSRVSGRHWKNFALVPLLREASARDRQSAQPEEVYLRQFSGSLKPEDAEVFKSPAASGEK
The experiment in a line: Functional testing on vanilloid receptor (VR1): FLIPR Ca2+ inflow assay in CHO K1 cells stably transfected with the VR1 gene. It counts as cell-based. The conditions noted are these: for inhibition at 10 µM: CHO-K1, inhibition compared to 10 μM CP (capsaicin); for activation at 10 µM: CHO-K1, stimulation compared to 10 μM CP (capsaicin). An excerpt: II. Functional Testing Carried Out on the Vanilloid Receptor (VR1)
The agonistic or antagonistic effect of the substances to be tested can also be determined on the vanilloid receptor (VR1) using the following assay. According to this assay, the Ca^2+ inflow is quantified through the channel using a Ca^2+-sensitive dye (type Fluo-4, Molecular Probes Europe BV, Leiden, Netherlands) in a fluorescent imaging plate reader (FLIPR, Molecular Devices, Sunnyvale, USA).
Chinese hamster ovary cells (CHO K1 cells, European Collection of Cell Cultures (ECACC) United Kingdom) were stably transfected with the VR1 gene. For functional testing, these cells were plated out on poly-D-lysine-coated black 96 well plates having a clear base (BD Biosciences, Heidelberg, Germany) at a density of 25,000 cells/well. The cells were incubated overnight at 37° C. and 5% CO2 in a culture medium (Ham's F12 nutrient mixture, 10% by volume of FCS (foetal calf serum), 18 μg/ml L-proline). The next day the cells were incubated with Fluo-4 (Fluo-4 2 μM, 0.01% by volume of Pluronic F127, Molecular Probes in HBSS (Hank's buffered saline solution), Gibco Invitrogen GmbH, Karlsruhe, Germany) for 30 minutes at 37° C. Subsequently, the plates were washed 3 times with HBSS buffer and after further incubation for 15 minutes at room temperature used for Ca^2+ measurement in a FLIPR assay. The Ca^2+-dependent fluorescence was measured before and after the addition of the substances to be tested (λex wavelength=488 nm, λem=540 nm). Quantification was carried out by measuring the highest fluorescence intensity (FC, Fluorescence Counts) over time.
The FLIPR protocol consists of 2 substance additions. First the compounds to be tested (10 μM) were pipetted onto the cells and the Ca^2+ inflow was compared with the control (capsaicin 10 μM) (% activation based on the Ca^2+ signal after the addition of 10 μM capsaicin). After 5 minutes' incubation, 100 nM of capsaicin were administered and the Ca^2+ inflow was also determined.
Desensitising agonists and antagonists led to suppression of the Ca^2+ inflow. The % inhibition was calculated compared to the maximum achievable inhibition with 10 μM of capsaicin.

With `O=C(Nc1ccccc1)N1CCC2(CC1)CC(c1ccc(Cl)cc1)=NO2` [Compound 3, 3-(4-chlorophenyl)-1-oxa-2,8-diazaspiro[4.5]dec-2-ene-8-carboxylic acid phenylamide], in experiment [1], the inhibition at 10 µM was 43.8% and the activation at 10 µM was -0.73%. Besides, in experiment [2], the inhibition at 10 µM stood at 13.4% and the activation at 10 µM worked out at 0.01%.

In the case of `CCCc1ccccc1NC(=O)N1CCC2(CC1)CC(c1ccccc1)=NO2` [Compound 22, 3-phenyl-1-oxa-2,8-diazaspiro[4.5]dec-2-ene-8-carboxylic acid-(2-propylphenyl)amide], in experiment [1], the inhibition at 10 µM was 40.3% and the activation at 10 µM was -0.73%. In experiment [2], the inhibition at 10 µM was 10.1% and the activation at 10 µM is -0.14%.

As to `COc1cccc(C2=NOC3(CCN(C(=O)Nc4ccc(Cl)cc4)CC3)C2)c1` [Compound 39, 3-(3-methoxyphenyl)-1-oxa-2,8-diazaspiro[4.5]dec-2-ene-8-carboxylic acid-(4-chlorophenyl)amide], in experiment [1], the inhibition at 10 µM came out at 74% and the activation at 10 µM came to 0.11%. In experiment [2], the inhibition at 10 µM was determined as 25% and the activation at 10 µM was -0.14%.

As for `CC(C)(C)c1ccc(C2=NOC3(CCN(C(=O)Nc4ccc(Cl)cc4)CC3)C2)cc1` [Compound 42, 3-(4-tert-butylphenyl)-1-oxa-2,8-diazaspiro[4.5]dec-2-ene-8-carboxylic acid-(4-chlorophenyl)amide], the inhibition at 10 µM in experiment [1] was 39.9%; in experiment [2], 2.57%. Moreover, the activation at 10 µM is -0.73% in experiment [1] and -0.22% in experiment [2].

For the compound `O=C(Nc1ccc(I)cc1)N1CCC2(CC1)CC(c1ccccc1)=NO2` [Compound 44, 3-phenyl-1-oxa-2,8-diazaspiro[4.5]dec-2-ene-8-carboxylic acid-(4-iodophenyl)amide], the inhibition at 10 µM is 85.6% in experiment [1] and -4.4% in experiment [2]. Moreover, the activation at 10 µM was -0.73% in experiment [1] and -0.15% in experiment [2].

For the compound `CC(C)(C)c1ccc(C2=NOC3(CCN(C(=O)Nc4ccc(I)cc4)CC3)C2)cc1` [Compound 45, 3-(4-tert-butylphenyl)-1-oxa-2,8-diazaspiro[4.5]dec-2-ene-8-carboxylic acid-(4-iodophenyl)amide], the inhibition at 10 µM in experiment [1] was determined as 55.5%; in experiment [2], 0.17%. The activation at 10 µM is -0.73% in experiment [1] and -0.04% in experiment [2].

In the case of `COc1ccc(NC(=O)N2CCC3(CC2)CC(c2cccc(OC)c2)=NO3)cc1` [Compound 47, 3-(3-methoxyphenyl)-1-oxa-2,8-diazaspiro[4.5]dec-2-ene-8-carboxylic acid-(4-methoxyphenyl)amide], in experiment [1], the inhibition at 10 µM amounted to 48.3% and the activation at 10 µM was 0.92%. For the same compound, in experiment [2], the inhibition at 10 µM is 11.4% and the activation at 10 µM amounted to 0.01%.

`CSc1ccccc1NC(=O)N1CCC2(CC1)CC(c1ccc(C(C)(C)C)cc1)=NO2` [Compound 56, 3-(4-tert-butylphenyl)-1-oxa-2,8-diazaspiro[4.5]dec-2-ene-8-carboxylic acid-(2-methylsulphanylphenyl)amide]: in experiment [1], the inhibition at 10 µM was 47.3% and the activation at 10 µM was -0.04%. In experiment [2], the inhibition at 10 µM is 16.4% and the activation at 10 µM was -0.22%.

As to `COc1cccc(C2=NOC3(CCN(C(=O)Nc4cccc(SC)c4)CC3)C2)c1` [Compound 59, 3-(3-methoxyphenyl)-1-oxa-2,8-diazaspiro[4.5]dec-2-ene-8-carboxylic acid-(3-methylsulphanylphenyl)amide], in experiment [1], the inhibition at 10 µM worked out at 48.6% and the activation at 10 µM came to 0.51%. For the same compound, in experiment [2], the inhibition at 10 µM stood at 2.09% and the activation at 10 µM was 0.01%.

Take `COc1cccc(C2=NOC3(CCN(C(=O)Nc4ccc(SC)cc4)CC3)C2)c1` [Compound 65, 3-(3-methoxyphenyl)-1-oxa-2,8-diazaspiro[4.5]dec-2-ene-8-carboxylic acid-(4-methylsulphanylphenyl)amide]: the figures for the inhibition at 10 µM in experiment [1] and in experiment [2] were 80.5% and -10.8%, respectively. For the same compound, the activation at 10 µM is 0.08% in experiment [1] and -0.07% in experiment [2].

Consider `CSc1ccc(NC(=O)N2CCC3(CC2)CC(c2ccc(C)cc2)=NO3)cc1` [Compound 69, 3-p-tolyl-1-oxa-2,8-diazaspiro[4.5]dec-2-ene-8-carboxylic acid-(4-methylsulphanylphenyl)amide], for which, in experiment [1], the inhibition at 10 µM is 87.2% and the activation at 10 µM is -0.47%. In experiment [2], the inhibition at 10 µM was found to be 7.01% and the activation at 10 µM was -0.32%.

As to `COc1cccc(C2=NOC3(CCN(C(=O)Nc4ccc(C(C)C)cc4)CC3)C2)c1` [Compound 77, 3-(3-methoxyphenyl)-1-oxa-2,8-diazaspiro[4.5]dec-2-ene-8-carboxylic acid-(4-isopropylphenyl)amide], in experiment [1], the inhibition at 10 µM turned out to be 95.4% and the activation at 10 µM is 3.81%. In addition, in experiment [2], the inhibition at 10 µM came out at 5.49% and the activation at 10 µM stood at 0.1%.

For the compound `CC(C)c1ccc(NC(=O)N2CCC3(CC2)CC(c2ccccc2)=NO3)cc1` [Compound 78, 3-phenyl-1-oxa-2,8-diazaspiro[4.5]dec-2-ene-8-carboxylic acid-(4-isopropylphenyl)amide], in experiment [1], the inhibition at 10 µM is 95% and the activation at 10 µM turned out to be 0.02%. In experiment [2], the inhibition at 10 µM stood at 11.8% and the activation at 10 µM amounted to 0.11%.

`FS(F)(F)(F)(F)c1ccc(NC(=S)N2CCC3(CC2)CC(c2ccccc2)=NO3)cc1` [Compound 330, 3-phenyl-1-oxa-2,8-diazaspiro[4.5]dec-2-ene-8-thiocarboxylic acid-(4-pentafluorosulphanylphenyl)amide]: in experiment [1], the inhibition at 10 µM was 103% and the activation at 10 µM came out at 1%.
